Source: US5366983A, “Use of quaternary ammonium compounds to remove salmonella contamination from meat products” (The Board of Trustees of The University of Arkansas, priority 1992, dated 1994)
Values joined by “and” are separate entries in the source; they are usually repeats but may differ in a detail not shown here. Equal entries are not always repeated. Where two headings read alike, the source gives them in different places.

What was measured:
[1] = system: Salmonella typhimurium ATCC 14028; assay: Effect on viability of Salmonella in suspension (Tables D-1 to D-3); format: cell-based; conditions: Table D-1
Method in brief: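 Bactericidal activity against Salmonella measured in suspension; EC50 derived by nonlinear regression of kill versus molar concentration. Na2-EDTA and EGTA dissolved and diluted in 0.04 M PPB; EGTA heated 15 minutes at 80° C., adjusted to pH 7.0 with NaOH, filter-sterilized.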

[2] = system: Salmonella attachment to human buccal epithelial cells; conditions: count on treated cell / untreated cell
Protocol: The Salmonella suspension and the human buccal epithelial cells were prepared according to the method described in the detachment experiments of Example 1, except that only the control buccal epithelial cells were suspended in PBS and washed twice at 4500 rpm for 10 minutes. […] The exposure of the buccal epithelial cells to the Salmonella suspension and all subsequent procedures were performed according to the method described in Example 1.

[3] = system: Salmonella typhimurium on chicken skin; assay: Prevention of attachment of Salmonella on excised chicken skin (Table F5)
Protocol: To determine the ability of surfactants to inhibit attachment or produce detachment of Salmonella, the following experiment was conducted. A hole was bored into the bottom of a 150 ml specimen cup. Chicken skin was excised from a drum stick and then placed over the cap of the specimen cup, and then the cap was screwed on. S. typhimurium was diluted 1:5000 with PBS or a surfactant. The surfactants were diluted appropriately. The skin was then inoculated with the solution containing the S. typhimurium and the surfactant for 30 minutes at room temperature.
Following incubation, the skin was washed. The rinse water was diluted appropriately in PBS and then plated onto XLD pour plates. The S. typhimurium was counted and reported as CFU/ml. The skin was swabbed so as to remove any remaining S. typhimurium using a nitroellulose lift and the CFU's/ml on the lift were also counted.

[4] = system: Salmonella typhimurium TA100; assay: Salmonella reversion assay, TA100
Protocol: Test strains TA98 and TA100 were obtained from Bruce N. Ames (University of California, Berkley, Calif.). Mutagenicities were determined both in the absence of and in the presence of a mammalian liver S9 activating system. S9 is the 9000×g supernatant prepared from liver homogenates from Aroclor 1254 stimulated male Sprague Dawley rats. The S9 was purchased from Molecular Toxicology, Inc. (Anapolis, Md.).
Bacterial broth cultures were grown overnight at 37° with shaking in Oxoid Broth #2. For assays in the absence of S9, a 0.5 ml aliquot of 100 mM Sodium Phosphate Buffer, pH 7.4, was added to sterile 13×100 mm capped culture tubes. For assays in the presence of S9, a 0.5 ml aliquot of 10% S9 mix was added. The S9 mix consisted of 8 mM magnesium chloride, 33 mM potassium chloride, 5 mM glucose-6-phosphate, 4 mM NADP, 100 mM sodium phosphate, pH 7.4 and S9 in a concentration of approximately 1.46 mg protein/ml.
The culture tubes were placed in an ice bath and 0.1 ml of the bacterial suspension and 0.1 ml of a DMSO solution of the test compound were added. The mixture was vortexed gently and incubated at 37° for 20 minutes with shaking in a water bath. Molten top agar (2.0 ml) containing 0.5 mM histidine HCl and 0.5 mM biotin were added, and the mixture was vortexed gently and poured onto a minimal glucose plate. After allowing the agar to solidify, the plates were inverted and placed in a 37° incubator in the dark for 48 hours. The revertant (mutant) colonies were counted and the background lawn was examined on all plates. A response that was two times that of the DMSO solvent control was considered a positive response.

adherent S. typhimurium = conditions: 10 minutes
[5] = system: Salmonella typhimurium ATCC 14028
Protocol: Salmonella typhimurium ATCC 14028 was used for these studies and prepared as follows. A 16 hour culture in nutrient broth (BBL) was centrifuged at 15,000 rpm for 10 minutes at 4° C. The deposit was washed once with 0.04 M potassium phosphate buffer (PPB) at pH 7.0 and resuspended in fresh PPB to contain 1-2×10^9 bacteria/ml. Samples (1.0 ml) of this suspension were added into a 1.8 ml Eppendorff vial and centrifuged at 14,000 rpm for 4 minutes. The pellets were first suspended in 1.0 ml of PPB or 1.0 ml of an appropriate concentration of test chemical solution, and then centrifuged and washed with the buffer under the same conditions. After washing, the samples of bacterial suspensions were appropriately diluted in PPB. Duplicate 0.05 ml samples were withdrawn and immediately added onto nutrient agar plates. Colonies were counted after 24 hours incubation at 37° C.

[6] = system: Salmonella typhimurium TA100; assay: Salmonella reversion assay after heating at 205° C., TA100; format: cell-based; conditions: for Revertants/plate: heated at 205° C.
Protocol: Test strains TA98 and TA100 were used. Again, mutagenicities were determined both in the absence and in the presence of the mammalian liver S9 activating system.
A response that was two times that of the solvent control was considered a positive response.

Q: Which bacterial viability ([1]; 20 ug/ml) does the source give for `CCCCCCCCCCCCCCCC[n+]1ccccc1` [CPC, cetylpyridinium chloride] here?
A: 1.84 ± 0.087 × 10^8 CFU/ml

Q: And the bacterial viability ([1]; 22.5 ug/ml)?
A: 9.07 ± 2.16 × 10^7 CFU/ml

Q: What about the bacterial viability ([1]; 25 ug/ml) of the same molecule?
A: 5.15 ± 1.18 × 10^6 CFU/ml

Q: And the Counts/con ([2]; 2.5 mcg/mL)?
A: 62/71

Q: And the Counts/con ([2]; 5 mcg/mL)?
A: 41/71

Q: What about the Counts/con ([2]; 10 mcg/mL) of the same molecule?
A: 26/70 and 24/74

Q: What about the Counts/con ([2]; 100 mcg/mL) of the same molecule?
A: 30/70 and 23/74

Q: And the “CFU/ml on XLD agar” value [3]?
A: 20

Q: What about the “Nitrocellulose lift (# of colonies)” value ([3]; skin, 30 minutes at room temperature) of the same molecule?
A: 4 # of colonies

Q: And the Revertants/plate ([4]; TA100, +S9, 5 μg/plate)?
A: 129 ± 14 Revertants/plate

Q: And the Revertants/plate ([4]; TA100, +S9, 10 μg/plate)?
A: 136 ± 11 Revertants/plate

Q: What about the Revertants/plate ([4]; TA100, +S9, 20 μg/plate) of the same molecule?
A: 126 ± 14 Revertants/plate

Q: And the Revertants/plate ([4]; TA100, +S9, 40 μg/plate)?
A: 125 ± 5 Revertants/plate

Q: What about the Revertants/plate ([4]; TA100, +S9, 50 μg/plate) of the same molecule?
A: 126 ± 10 Revertants/plate

Q: And the Revertants/plate ([4]; TA100, -S9, 1 μg/plate)?
A: 98 ± 5 Revertants/plate

Q: What about the Revertants/plate ([4]; TA100, -S9, 5 μg/plate) of the same molecule?
A: 133 ± 5 Revertants/plate

Q: What about the Revertants/plate ([4]; TA100, -S9, 10 μg/plate) of the same molecule?
A: 130 ± 9 Revertants/plate

Q: What about the “mutagenicity (in words)” value ([4]; TA100, absence of S9, low concentrations) of the same molecule?
A: nonmutagenic

Q: What about the “mutagenicity and cytotoxicity (in words)” value ([4]; TA100, presence of S9) of the same molecule?
A: neither mutagenic nor cytotoxic

Q: And the “Colony Count (±SD)” value (adherent S. typhimurium; 5 μg/ml)?
A: 2.52 ± 2.69 × 10^3

Q: And the “Colony Count (±SD)” value (adherent S. typhimurium; 10 μg/ml)?
A: 4.40 ± 5.68 × 10^2

Q: And the “Colony Count (±SD)” value (adherent S. typhimurium; 50 μg/ml)?
A: 2.0 ± 4.5 × 10^1

Q: And the bacterial viability ([5]; CPC 10 ug/ml + 0.0625% Na2-EDTA)?
A: 6.21 ± 0.75 × 10^8 CFU/ml

Q: What about the bacterial viability ([5]; CPC 10 ug/ml + 0.125% Na2-EDTA) of the same molecule?
A: 6.24 ± 0.79 × 10^8 CFU/ml

Q: And the bacterial viability ([5]; CPC 10 ug/ml + 0.5% Na2-EDTA)?
A: 5.79 ± 0.1 × 10^8 CFU/ml

Q: What about the bacterial viability ([5]; CPC 10 ug/ml, no chelating agent) of the same molecule?
A: 6.08 ± 0.6 × 10^8 CFU/ml

Q: And the bacterial viability ([5]; CPC 17 ug/ml + 0.125% Na2-EDTA)?
A: 1.52 ± 0.42 × 10^7 CFU/ml

Q: What about the bacterial viability ([5]; CPC 17 ug/ml + 0.5% Na2-EDTA) of the same molecule?
A: 4.8 ± 0.42 × 10^6 CFU/ml

Q: What about the bacterial viability ([5]; CPC 17 ug/ml, no chelating agent) of the same molecule?
A: 7.25 ± 0.1 × 10^7 CFU/ml

Q: What about the bacterial viability ([5]; CPC 20 ug/ml + 0.25% EGTA) of the same molecule?
A: 3.01 ± 0.44 CFU/ml

Q: And the bacterial viability ([5]; CPC 20 ug/ml + 1% EGTA)?
A: 2.64 ± 0.32 CFU/ml

Q: And the bacterial viability ([5]; CPC 30 ug/ml + 0.25% EGTA)?
A: 85 ± 65 CFU/ml

Q: What about the bacterial viability ([5]; CPC 30 ug/ml + 0.25% Na2-EDTA) of the same molecule?
A: 20 ± 13 CFU/ml

Q: And the bacterial viability ([5]; CPC 30 ug/ml, no chelating agent)?
A: 117 ± 189 CFU/ml and 82 ± 73 CFU/ml

Q: What about the bacterial viability ([5]; CPC 40 ug/ml + 1% EGTA) of the same molecule?
A: 0 CFU/ml

Q: What about the bacterial viability ([5]; CPC 40 ug/ml, no chelating agent) of the same molecule?
A: 8 ± 14 CFU/ml

Q: What about the “decrease in cell viability” value ([5]; CPC and Na2-EDTA used together) of the same molecule?
A: 2.5 fold

Q: What about the log reduction at 20 µg/mL ([5]; Salmonella enterica, read-out: decrease in CFU/ml) of the same molecule?
A: 1.5

Q: And the Revertants/plate ([6]; TA100, +S9, 0.1 μg/plate)?
A: 122 ± 3 Revertants/plate

Q: What about the Revertants/plate ([6]; TA100, +S9, 1.0 μg/plate) of the same molecule?
A: 126 ± 14 Revertants/plate

Q: What about the Revertants/plate ([6]; TA100, +S9, 5.0 μg/plate) of the same molecule?
A: 118 ± 10 Revertants/plate

Q: And the Revertants/plate ([6]; TA100, +S9, 10.0 μg/plate)?
A: 123 ± 8 Revertants/plate

Q: What about the Revertants/plate ([6]; TA100, -S9, 0.1 μg/plate) of the same molecule?
A: 117 ± 6 Revertants/plate

Q: And the Revertants/plate ([6]; TA100, -S9, 1.0 μg/plate)?
A: 113 ± 8 Revertants/plate

Q: And the Revertants/plate ([6]; TA100, -S9, 5.0 μg/plate)?
A: 123 ± 4 Revertants/plate

Q: What about the Revertants/plate ([6]; TA100, -S9, 10.0 μg/plate) of the same molecule?
A: 126 ± 4 Revertants/plate

Q: And the “mutagenicity after heating in vegetable oil (in words)” value ([6]; TA100, absence or presence of S9, all concentrations tested)?
A: did not produce substances which are mutagenic
